Series [1] deals with rats, dogs, cats and rabbits. The conditions noted are these: prior art; cited from earlier work.
The subject of the next series is skin. In words: Handling hazard observed in synthesis. The conditions noted are these: observation in synthesis.
Series [2] concerns genetically hypertensive rats. In words: Blood pressure change after oral dosing (intra-arterial cannula and transducer). The class given is in vivo, rat. As to conditions: P.O. 50 mg./kg.; for change in vivo at 50 mg/kg: Rattus norvegicus, po, + increase, - decrease in b.p., tested as hydrochloride salts. The procedure:
The blood pressure of unanesthetized rats and dogs was measured directly by means of a transducer attached to an intra-arterial cannula and in anesthetized dogs by a mercury manometer attached to a carotid cannula.
The compounds of the instant invention were tested as the hydrochloride salts by the above method in genetically hypertensive rats in doses of 50 mg./kg. orally.

For the molecule `c1ccc2c(c1)CN1CCNC1=N2`, the antihypertensive activity entry in series [1] is “potent antihypertensive activity”.
Take `Cc1cccc([N+](=O)[O-])c1CCl` [2-Methyl-6-nitrobenzyl chloride]: in the series on skin, the “lachrymator and skin irritant” value was “strong lachrymator and skin irritant”.
Regarding `COc1ccc2c(c1)CN1CCC(=O)NC1=N2` [Compound 26], the change in vivo at 50 mg/kg in series [2] stood at 19 ± 6%.
Take `O=C1CCN2Cc3cc(Br)ccc3N=C2N1` [Compound 21, 8-Bromo-6-[H]-1,2,3,4-tetrahydropyrimido[2,1-b]quinazolin-2-one]: the “Blood Pressure % Change Rats column: toxicity in words” value in series [2] is “Toxic”.
`COc1cccc2c1N=C1NC(=O)CCN1C2` [Compound 27]: the change in vivo at 50 mg/kg in series [2] was -1 ± 4%.
For the molecule `COc1cccc2c1CN1CCC(=O)NC1=N2` [Compound 25], the change in vivo at 50 mg/kg in series [2] was 5 ± 3%.
As for `COc1cc2c(cc1OC)N=C1NC(=O)CCN1C2` [Compound 28], the change in vivo at 50 mg/kg in series [2] was -7 ± 2%.

The record behind these values is patent USRE31617E, “Optionally substituted 1,2,3,5-tetrahydroimidezo(2,1-b)-quinazolin-2-ones and 6(H)-1,2,3,4-tetrahydropyimido(2,1-b)quinazolin-2-ones” (Bristol-Myers Company, priority 1982, dated 1984).
